This is an account of results in US8299074B2, “P38 MAP kinase inhibitors” (RespiVert Ltd., priority 2008, dated 2012).

The test system of one series is THP-1 cells. Description: LPS-induced TNF alpha release in THP-1 cells. It counts as cell-based. As to conditions: Homo sapiens. The method, then: LPS-Induced TNF Alpha Release in THP-1 Cells: Potency […] Coli; O111:B4, Sigma) for 4 hr and the supernatant collected for determination of TNFα concentration by sandwich ELISA (Duo-set, R&D systems). The inhibition of TNFα production was calculated at each concentration by comparison with vehicle control.

Series [1] relates to Differentiated U937 cells. Description: MTT assay (cell viability). It counts as cell-based, human. The method, then: MTT Assay Differentiated U937 cells were pre-incubated with compound for 4 hrs in 5% FCS or 10% FCS for 24 hrs. […] After 1 hr incubation, the media were removed, 200 ul of DMSO added to each well and the plates were shaken lightly for 1 h prior to reading the absorbance at 550 nm. The percentage loss of cell viability was calculated for each well relative to vehicle (0.5% DMSO)-treatment. Consequently an apparent increase in cell viability for drug treatment relative to vehicle is tabulated as a negative percentage.
(Tetrazolium dyes change colour on reduction, which living cells bring about.)

The next series relates to BEAS2B cells. Description: Poly I:C-induced ICAM-1 induction in BEAS2B cells. In kind it is cell-based. As to conditions: Homo sapiens, BEAS-2B, read-out: BEAS2B (polyIC) ICAM1 IC50. The method, then: Poly I:C-Induced ICAM-1 Induction in BEAS2B Cells: Potency Poly I:C (1 ug/ml) (Invivogen Ltd., San Diego, Calif.) was transfected into BEAS2B cells (human bronchial epithelial cells, ATCC) with Oligofectamine (Invitrogen, Carlsbad, Calif.). Cells were pre-incubated with final concentrations of compound for 2 hrs. The level of ICAM1 expression on the cell surface was determined by cell-based ELISA. Briefly, at 18 hrs after poly I:C transfection, cells were fixed with 4% formaldehyde in PBS. After quenching endogenous peroxidase by adding 0.1% sodium azide and 1% hydrogen peroxide, cells were washed with wash-buffer (0.1% Tween in PBS: PBS-Tween). After blocking the wells with 5% milk in PBS-Tween for 1 hr, the cells were incubated with anti-human ICAM-1 antibody (Cell Signaling Technology, Danvers, Mass.) in 1% BSA PBS overnight at 4° C. Cells were washed with PBS-Tween and incubated with the secondary antibody (HRP-conjugated anti-rabbit IgG, Dako Ltd., Glostrup, Denmark). The ICAM-1 signal was detected by adding substrate and reading at 450 nm with a reference wavelength of 655 nm using a spectrophotometer. […] The measured OD 450-655 readings were corrected for cell number by dividing with the OD595 reading in each well.

The target in a further series is T1, p38 MAPK alpha (MAPK14) (Homo sapiens, UniProt Q16539).
T1 construct: purchased Invitrogen
Description: Enzyme inhibition assay, p38 MAPK alpha (FRET, Z-LYTE, via MAPKAP-K2). It counts as biochemical. The note with it: read-out: Enzyme p38α IC50.

Series [2] has as its system U937 cells. Description: LPS-induced TNF alpha release in U937 cells. In kind it is cell-based. The method, then:
(§1) LPS-Induced TNF Alpha/IL-8 Release in U937 Cells: Potency U937 cells, human monocytic cell line, were differentiated to macrophage-type cells by incubation with phorbol myristate acetate (PMA; 100 ng/ml) for 48 to 72 hours. Cells were pre-incubated with final concentrations of compound for 2 hrs. […] Coli: O111:B4, Sigma) for 4 hrs, and the supernatant collected for determination of TNFα and IL-8 concentration by sandwich ELISA (Duo-set, R&D systems). […] The inhibition of IL-8 production was calculated at each concentration of test compound by comparison with vehicle control.

The subject of series [3] is U937 cells. Description: LPS-induced IL-8 release in U937 cells. In kind it is cell-based. As to conditions: Homo sapiens, read-out: DU937 (LPS) IL-8 IC50. The protocol: as §1
Where [4] appears, read: THP-1, Table 3, read-out: THP-1 (LPS) TNFα IC50.
The mark [5] stands for this setting: Table 3, first MTT column, loss of cell viability at 1 μg/ml.
Setting [6] is: Table 3, second MTT column, loss of cell viability at 1 μg/ml.
The mark [7] stands for this setting: Homo sapiens; read-out: DU937 (LPS) TNFα REC50.
[8] abbreviates: THP-1, Table 2, read-out: THP-1 (LPS) TNFα IC50.
Where [9] appears, read: Table 2, loss of cell viability at 1 μg/ml.
[10] abbreviates: Table 2, loss of cell viability, test conducted at 10 μg/ml.

Read-outs that look alike come from different tables or passages of the source.

T1 sequence (Q16539 whole entry): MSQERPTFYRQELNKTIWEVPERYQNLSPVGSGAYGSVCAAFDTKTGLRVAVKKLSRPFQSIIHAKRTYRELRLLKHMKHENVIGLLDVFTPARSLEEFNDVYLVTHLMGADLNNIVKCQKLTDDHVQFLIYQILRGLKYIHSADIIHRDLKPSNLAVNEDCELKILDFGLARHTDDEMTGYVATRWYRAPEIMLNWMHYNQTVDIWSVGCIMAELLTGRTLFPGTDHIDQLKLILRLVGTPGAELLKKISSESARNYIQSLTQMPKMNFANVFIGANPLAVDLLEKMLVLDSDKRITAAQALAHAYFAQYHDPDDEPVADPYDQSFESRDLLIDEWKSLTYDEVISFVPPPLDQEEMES

As a reminder, the IC50 is the concentration that inhibits the measured activity by half. For the compound `Cc1ccc(-n2nc(C(C)(C)C)cc2NC(=O)Nc2ccc(Oc3ccnc(NC(=O)N4CCN(C)CC4)c3)c3ccccc23)cc1` [Example 43, N-(4-((4-(3-(3-(tert-Butyl)-1-(p-tolyl)-1H-pyrazol-5-yl)ureido)naphthalen-1-yl)oxy)pyridin-2-yl)-4-methylpiperazine-1-carboxamide], the IC50 with THP-1 cells (setting [4]), in the series on BEAS2B cells (Table 3), on p38 MAPK alpha (MAPK14) (Table 3) and in the series on U937 cells [3] (Table 3) was below 0.01 µM each time. In addition, the “DU937 (cell viability) MTT assay 4 h” value in series [1] (setting [5]) and in series [1] (setting [6]) was “− (<=30%)” throughout. Moreover, in the series with U937 cells [2] (setting [7]), the EC50 is below 0.01 µM.
In the case of `Cc1ccc(-n2nc(C(C)(C)C)cc2NC(=O)Nc2ccc(Oc3ccnc(NC(=O)CNC(N)=O)c3)c3ccccc23)cc1` [Example 14, N-(4-(4-(3-(3-tert-Butyl-1-p-tolyl-1H-pyrazol-5-yl)ureido)naphthalen-1-yloxy)pyridin-2-yl)-2-ureidoacetamide], the IC50 in the series with THP-1 cells (setting [8]) is below 5 µM; with BEAS2B cells (Table 2) it was below 5 µM; at p38 MAPK alpha (MAPK14) (Table 2), below 0.01 µM; with U937 cells [3] (Table 2) it was below 5 µM. Besides, the “DU937 (cell viability) MTT assay 4 h” value in series [1] (setting [9]) is given as “− (<=30%)”. Besides, in series [1] (setting [9]), the “DU937 (cell viability) MTT assay 24 h” value was “− (<=30%)”. The EC50 with U937 cells [2] (setting [7]) is below 5 µM.
Regarding `COCCNC(=O)Nc1cc(Oc2ccc(NC(=O)Nc3cc(C(C)(C)C)nn3-c3ccc(C)cc3)c3ccccc23)ccn1` [Example 34, 1-(3-(tert-Butyl)-1-(p-tolyl)-1H-pyrazol-5-yl)-3-(4-((2-(3-(2-methoxyethyl)ureido)pyridin-4-yl)oxy)naphthalen-1-yl)urea], the IC50 was below 0.01 µM in the series on THP-1 cells (setting [4]), below 5 µM in the series with BEAS2B cells (Table 3), below 5 µM at p38 MAPK alpha (MAPK14) (Table 3) and below 5 µM in the series on U937 cells [3] (Table 3). The “DU937 (cell viability) MTT assay 4 h” value in series [1] (Table 3, first MTT column, loss of cell viability, test conducted at 10 μg/ml) is reported as “−^ ^$ (<=30%)”; in series [1] (Table 3, second MTT column, loss of cell viability, test conducted at 10 μg/ml) it was “+^$ (>30%)”. Further, the EC50 with U937 cells [2] (setting [7]) is below 5 µM.
In the case of `Cc1ccc(-n2nc(C(C)(C)C)cc2NC(=O)Nc2ccc(Oc3ccnc(NC(=O)CNC(=O)c4ccncc4)c3)c3ccccc23)cc1` [Example 17, N-(2-(4-(4-(3-(3-tert-Butyl-1-p-tolyl-1H-pyrazol-5-yl)ureido)naphthalen-1-yloxy)pyridin-2-ylamino)-2-oxoethyl)isonicotinamide], the IC50 is below 0.01 µM with THP-1 cells (THP-1, read-out: THP-1 (LPS) TNFα IC50); below 0.01 µM with BEAS2B cells; below 0.01 µM on p38 MAPK alpha (MAPK14) (Table 2); below 0.01 µM in the series with U937 cells [3]. Further, the “DU937 (cell viability) MTT assay 4 h” value in series [1] (setting [9]) is “− (<=30%)”. Further, the “DU937 (cell viability) MTT assay 24 h” value in series [1] (setting [9]) is recorded as “+ (>30%)”. Besides, the EC50 with U937 cells [2] (Homo sapiens, read-out: DU937 (LPS) TNFα REC50) is below 0.01 µM.
Take `Cc1ccc(-n2nc(C(C)(C)C)cc2NC(=O)Nc2ccc(Oc3ccnc(NC(=O)N4CC[C@@H](N(C)C)C4)c3)c3ccccc23)cc1` [Example 54, (R)—N-(4-(4-(3-(3-tert-Butyl-1-p-tolyl-1H-pyrazol-5-yl)ureido)naphthalen-1-yloxy)pyridin-2-yl)-3-(dimethylamino)pyrrolidine-1-carboxamide]: the IC50 in the series on THP-1 cells (setting [4]), with BEAS2B cells (Table 3), at p38 MAPK alpha (MAPK14) (Table 3) and in the series with U937 cells [3] (Table 3) was below 0.01 µM in each case. The “DU937 (cell viability) MTT assay 4 h” value in series [1] (setting [5]) and in series [1] (setting [6]) was “− (<=30%)” in each case. The EC50 with U937 cells [2] (setting [7]) was below 0.01 µM.
Turning to `Cc1ccc(-n2nc(C(C)(C)C)cc2NC(=O)Nc2ccc(Oc3ccnc(NC(=O)NCCCn4ccnc4)c3)c3ccccc23)cc1` [Example 52, N-(3-(Imidazol-1-yl)propyl)-N′-4-(4-(3-(3-tert-butyl-1-p-tolyl-1H-pyrazol-5-yl)ureido)naphthalen-1-yloxy)pyridin-2-ylurea], the IC50 with THP-1 cells (setting [4]) was below 0.01 µM; in the series on BEAS2B cells (Table 3), below 0.01 µM; at p38 MAPK alpha (MAPK14) (Table 3), below 5 µM; with U937 cells [3] (Table 3), below 0.01 µM. Further, the “DU937 (cell viability) MTT assay 4 h” value in series [1] (setting [5]) and in series [1] (setting [6]) was “− (<=30%)” in each case. Moreover, in the series with U937 cells [2] (setting [7]), the EC50 was below 0.01 µM.
Take `CCc1cc(NC(=O)Nc2ccc(Oc3ccnc(NC(=O)COC)c3)c3ccccc23)n(-c2ccc(C)cc2)n1` [Example 7, N-(4-(4-(3-(3-Ethyl-1-p-tolyl-1H-pyrazol-5-yl)ureido)naphthalen-1-yloxy)pyridin-2-yl)-2-methoxyacetamide]: the IC50 in the series on THP-1 cells (setting [8]) was below 0.01 µM; in the series on BEAS2B cells (Table 2), below 5 µM; at p38 MAPK alpha (MAPK14) (Table 2) it was below 0.01 µM; in the series with U937 cells [3] (Table 2), below 0.01 µM. Also, in series [1] (setting [9]), the “DU937 (cell viability) MTT assay 4 h” value is reported as “− (<=30%)”. Moreover, in series [1] (setting [9]), the “DU937 (cell viability) MTT assay 24 h” value is “− (<=30%)”. In addition, the EC50 in the series on U937 cells [2] (setting [7]) was below 0.01 µM.
For `CC(=O)N1CCC(NC(=O)Nc2cc(Oc3ccc(NC(=O)Nc4cc(C(C)(C)C)nn4-c4ccc(C)cc4)c4ccccc34)ccn2)CC1` [Example 39, N-Acetyl 4-(3-(4-(4-(3-(3-tert-butyl-1-p-tolyl-1H-pyrazol-5-yl)ureido)naphthalen-1-yloxy)pyridin-2-yl)ureido)piperidine], the IC50 in the series on THP-1 cells (setting [4]) was below 0.01 µM; in the series on BEAS2B cells (Table 3) it was below 5 µM; at p38 MAPK alpha (MAPK14) (Table 3), below 0.01 µM; in the series with U937 cells [3] (Table 3), below 0.01 µM. Also, the “DU937 (cell viability) MTT assay 4 h” value in series [1] (setting [5]) is “− (<=30%)”; in series [1] (setting [6]), “+ (>30%)”. The EC50 with U937 cells [2] (setting [7]) is below 0.01 µM.
`Cc1ccc(-n2nc(C(C)(C)C)cc2NC(=O)Nc2ccc(Oc3ccnc(NC(=O)CN(C)C)c3)c3ccccc23)cc1` [Example 12, N-(4-(4-(3-(3-tert-Butyl-1-p-tolyl-1H-pyrazol-5-yl)ureido)naphthalen-1-yloxy)pyridin-2-yl)-(dimethylamino)acetamide]: the IC50 in the series with THP-1 cells (setting [8]) was below 0.01 µM; in the series with BEAS2B cells (Table 2), below 5 µM; at p38 MAPK alpha (MAPK14) (Table 2), below 0.01 µM; with U937 cells [3] (Table 2) it was below 0.01 µM. Further, the “DU937 (cell viability) MTT assay 4 h” value in series [1] (setting [10]) is on record as “−^$ (<=30%)”. Further, the “DU937 (cell viability) MTT assay 24 h” value in series [1] (setting [10]) is reported as “+^$ (>30%)”. Further, the EC50 in the series with U937 cells [2] (setting [7]) is below 0.01 µM.
With `Cc1ccc(-n2nc(C(C)(C)C)cc2NC(=O)Nc2ccc(Oc3ccnc(NC(=O)CNC(=O)C4CCOCC4)c3)c3ccccc23)cc1` [Example 16, N-(2-(4-(4-(3-(3-tert-Butyl-1-p-tolyl-1H-pyrazol-5-yl)ureido)naphthalen-1-yloxy)pyridin-2-ylamino)-2-oxoethyl)tetrahydro-2H-pyran-4-carboxamide], the IC50 in the series on THP-1 cells (setting [8]), in the series on BEAS2B cells (Table 2), on p38 MAPK alpha (MAPK14) (Table 2) and with U937 cells [3] (Table 2) was below 0.01 µM throughout. In addition, in series [1] (setting [9]), the “DU937 (cell viability) MTT assay 4 h” value is on record as “− (<=30%)”. The “DU937 (cell viability) MTT assay 24 h” value in series [1] (setting [9]) is given as “+ (>30%)”. Also, the EC50 in the series on U937 cells [2] (setting [7]) was below 0.01 µM.
On to `COCC(=O)Nc1cc(Oc2ccc(NC(=O)Nc3cc(C(C)(C)CO)nn3-c3ccc(C)cc3)c3ccccc23)ccn1` [Example 9, N-(4-(4-(3-(3-(1-Hydroxy-2-methylpropan-2-yl)-1-p-tolyl-1H-pyrazol-5-yl)ureido)naphthalen-1-yloxy)pyridin-2-yl)-2-methoxyacetamide], for which the IC50 with THP-1 cells (setting [8]) is below 0.01 µM; in the series on BEAS2B cells (Table 2) it was below 5 µM; at p38 MAPK alpha (MAPK14) (Table 2), below 0.01 µM; in the series with U937 cells [3] (Table 2), below 0.01 µM. Also, the “DU937 (cell viability) MTT assay 4 h” value in series [1] (setting [9]) is given as “− (<=30%)”. Moreover, in series [1] (setting [9]), the “DU937 (cell viability) MTT assay 24 h” value is on record as “− (<=30%)”. Besides, the EC50 with U937 cells [2] (setting [7]) is below 0.01 µM.
